For one data set, the system named is SW620 cells. The experiment in a line: LIVE/DEAD cytotoxicity assay, inhibition of cell proliferation, SW620. In kind it is cell-based, human. The note with it: for GI50: Homo sapiens, read-out: log GI50 values (M), SW620 cells (converted). As for the experimental part: (§1) Compounds of the present invention were tested for a possible cytotoxic or proliferation-inhibiting activity on the human tumour cell lines HeLa, SW620 and A375 (all from ATCC, American Type Culture Collection). To this end, the cells were plated in microtitre plates from Greiner (manufacturer No. 781092) at a cell density of 1000 cells/microtitre plate well and cultivated in cell culture medium at 37° C. under a 5% carbon dioxide atmosphere. Cell culture media and additives were purchased from Invitrogen and the foetal calf serum from Biochrom. The cell culture media for HeLa and A375 cells were used as stated by ATCC (HeLa: MEM, order No. 10370-047, with 1% sodium bicarbonate, 1% non-essential amino acids, 1% sodium pyruvate, 10% foetal calf serum, 0.1% gentamycin; A375: DMEM, order No. 41965-039, 2% sodium bicarbonate, 1% L-Glutamax, 10% foetal calf serum, 0.1% gentamycin). The culture medium for the SW620 cells consisted of DMEM, order No. 41965-039, 1% non-essential amino acids, 10% foetal calf serum, 0.1% gentamycin.
(§2) 24 hours after the cells had been plated in the microtitre plates, various concentrations of at most 100 μM down to a minimum concentration of 5 nM of the test compounds were added to the cells. Stock solutions of the test compounds (10 mM) were prepared in DMSO and stored at −20° C. For the cytotoxicity tests, the test compounds were diluted in the appropriate cell culture medium.
(§3) After a further 48 hours of incubation, the cells were washed with medium and analysed with the aid of a two-colour fluorescence cytotoxicity/viability test (LIVE/DEAD Viability/Cytotoxicity ASSAY Kit from Molecular Probes, order No. L-3224), according to the instructions of the manufacturer. To this end, the medium was aspirated and in each case 30 μl of LIVE/DEAD reagent per microtitre plate well were added to the cells, which were then incubated for 30 minutes. The cells were then washed with PBS (phosphate-buffered saline). The number of live cells was analysed by measuring the green fluorescence of the live dye calcein-AM as a component of the LIVE/DEAD reagent using a fluorescence plate reader (Flexstation, from Molecular Devices) at an excitation wavelength of 485 nm and an emission wavelength of 525 nm (Oral et al. 1998). Cells only with cell culture medium, without added test compounds, were treated in parallel and analysed as growth controls. The reference compounds used for anti-tumour agents having a cytotoxic or proliferation-inhibiting action were colchicine (from Merck/Calbiochem, order No 234115) and Taxol (baccatin III N-benzyl-b-phenylisoserine ester, from Merck/Calbiochem, order No. 580555) (Schiff and Horwitz 1980; Holmes et al., 1991). The cytotoxic effects of the test compounds were expressed as logarithmic GI50 values ((growth)-inhibiting logarithmic concentration value at which a cell growth reduced by 50% compared to the control without test compounds was measured; Xia et al., 2001; Smith et al., 2005).

The test system of another data set is A375 cells. Description: LIVE/DEAD cytotoxicity assay, inhibition of cell proliferation, A375. In kind it is cell-based, human. The note with it: for GI50: Homo sapiens, read-out: log GI50 values (M), A375 cells (converted). As for the experimental part: as §1, §2, §3
Another data set deals with HeLa cells. Description: LIVE/DEAD cytotoxicity assay, inhibition of cell proliferation, HeLa. In kind it is cell-based, human. The note with it: for GI50: Homo sapiens, read-out: log GI50 values (M), HeLa cells (converted). As for the experimental part: as §1, §2, §3
A further data set in a line: log P determination. It counts as physicochemical. The note with it: values marked *, acetonitrile/0.1% aqueous phosphoric acid.
Setting [1] is: SW620 cells, 48 hours incubation, calcein-AM fluorescence.
The mark [2] stands for this setting: A375 cells, 48 hours incubation, calcein-AM fluorescence.
The mark [3] stands for this setting: HeLa cells, 48 hours incubation, calcein-AM fluorescence.
The mark [4] stands for this setting: no footnote carries the single asterisk, general footnote: HPLC gradient method.

SMILES strings stand for the structures. Like-named read-outs stand apart in the source and are kept apart here. Marks after values point to notes of the source that are not given here.

As a reminder, the GI50 is the concentration giving 50% growth inhibition.

Take `C[C@H](Nc1c(-c2c(F)cc(F)cc2Cl)c(Cl)nc2c(C(=O)NS(C)(=O)=O)cnn12)C(F)(F)F` [Example 117]: the “log GI50 values (M), SW620 cells” value with SW620 cells (setting [1]) was 6.6 M. In addition, the “log GI50 values (M), A375 cells” value in the data set on A375 cells (setting [2]) is listed as 6.6 M. The “log GI50 values (M), HeLa cells” value in the data set with HeLa cells (setting [3]) is on record as 6.8 M. Moreover, the log p in “log P determination” (setting [4]) is listed as 3.56*.

For the compound `CC(C)[C@@H](C)Nc1c(-c2c(F)cc(F)cc2F)c(Cl)nc2c(C(=O)NS(C)(=O)=O)cnn12` [Example 177], in the data set on SW620 cells (setting [1]), the “log GI50 values (M), SW620 cells” value is recorded as 6.7 M. Also, in the data set with A375 cells (setting [2]), the “log GI50 values (M), A375 cells” value was 8.1 M. Besides, in the data set on HeLa cells (setting [3]), the “log GI50 values (M), HeLa cells” value is given as over 8 M. Moreover, in “log P determination” (setting [4]), the log p was 3.85*.

In the case of `CC(C)Nc1c(-c2c(F)cc(F)cc2F)c(Cl)nc2c(C(=O)NS(C)(=O)=O)cnn12` [Example 345], in the data set with SW620 cells (setting [1]), the “log GI50 values (M), SW620 cells” value is listed as 6.4 M. In addition, the “log GI50 values (M), A375 cells” value in the data set with A375 cells (setting [2]) is on record as 6.3 M. For the same compound, the “log GI50 values (M), HeLa cells” value in the data set on HeLa cells (setting [3]) was 6.6 M. Besides, the log p in “log P determination” (HPLC, gradient method, EEC Directive 79/831 Annex V. A8) is reported as 3.24*.

With `CC(=O)O[C@H]1C(=O)[C@@]2(C)[C@H]([C@H](OC(=O)c3ccccc3)[C@]3(O)C[C@H](OC(=O)[C@H](O)[C@@H](NC(=O)c4ccccc4)c4ccccc4)C(C)=C1C3(C)C)[C@]1(OC(C)=O)CO[C@@H]1C[C@@H]2O` [Taxol, reference compound], the concentration for 50% growth inhibition (GI50) was 1.26e-07 M in the data set on SW620 cells (SW-620, SW620 cells, 48 hours incubation, calcein-AM fluorescence); 2e-07 M in the data set with A375 cells (A-375, A375 cells, 48 hours incubation, calcein-AM fluorescence); 1.58e-08 M with HeLa cells (setting [3]).

Take `COc1cc2c(c(OC)c1OC)-c1ccc(OC)c(=O)cc1[C@@H](NC(C)=O)CC2` [colchicine, reference compound]: the GI50 was 3.16e-08 M in the data set on SW620 cells (SW-620, 48 h); 2e-08 M in the data set with A375 cells (A-375, 48 h); 1.58e-08 M with HeLa cells (HeLa, 48 h).

The values above are taken from US7781439B2, “Pyrazolopyrimidines” (Bayer CropScience AG, priority 2005, dated 2010).
